# Like-named read-outs stand apart in the source and are kept apart here.
# Legend:
# purified VDAC1 = target: T1, purified VDAC1 (Rattus norvegicus, UniProt Q9Z2L0); experiment: Microscale thermophoresis (MST) binding to purified VDAC1; details: MST, purified VDAC1 133 nM, 20 min incubation; means±SD (n=3); read-out: VDAC1 binding affinities
# T1 construct: rat liver mitochondria (5 mg/ml) in 10 mM Tris-HCl, pH 7.2, were incubated with 2% LDAO; from tissue; host or cells: rat liver mitochondria
# T1 sequence (Q9Z2L0 whole entry): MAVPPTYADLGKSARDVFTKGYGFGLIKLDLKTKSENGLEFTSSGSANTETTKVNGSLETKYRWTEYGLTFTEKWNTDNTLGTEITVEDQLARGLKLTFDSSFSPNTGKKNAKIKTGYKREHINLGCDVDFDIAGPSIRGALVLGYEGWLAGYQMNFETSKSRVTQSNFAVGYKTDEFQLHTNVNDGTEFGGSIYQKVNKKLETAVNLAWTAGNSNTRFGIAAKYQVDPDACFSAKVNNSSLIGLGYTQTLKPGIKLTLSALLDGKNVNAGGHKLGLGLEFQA
# Protocol: To obtain quantitative parameters of this interaction and derive a dissociation constant, e.g. a microscale thermophoresis (MST) interaction assay may be performed. In this manner, dissociation values are derived from the curves showing the affinity of the compounds of the invention to VDAC.
# Briefly, rat liver mitochondria (5 mg/ml) in 10 mM Tris-HCl, pH 7.2, were incubated with 2% LDAO at 0° C. for 20 min, followed by centrifugation (30 min, 14,000 g) and the obtained supernatant was loaded onto a dry celite:hydroxyapatite (2:1) column. VDAC1 was eluted with a solution containing 2% LDAO, 10 mM Tris-HCl, pH 7.2, 50 mM NaCl, and 20 to 22 mM NaH2PO4, with VDAC1 detection by Coomassie blue staining. The VDAC1-containing fractions were dialyzed against 10 mM Tris-HCl, pH 7.2, and subjected to a second chromatography step on a carboxymethyl-cellulose (CMC) column from which VDAC1 was eluted with a solution containing 10 mM Tris-HCl, pH 7.2, 0.1% LDAO and 500 mM NaCl, detected as above. The VDAC1-containing fractions were collected and used for VDAC1 channel conductance and MST assays.
# MST analysis was performed using a NanoTemper Monolith NT.115 apparatus. […]
# Purified VDAC1 (133 nM), labeled using the NanoTemper fluorescent protein-labeling Kit BLUE (Nano Temper technologies, Munich, Germany), according to the manufactory instructions, was incubated with increasing concentrations of the following tested compounds: compound of Formula 10 (AKOS-022), compound of Formula 2 (VBIT-3), or racemic compound of Formula 1 (VBIT-4). After 20 min of incubation, the samples (3-5 μL) were loaded into MST-grade glass capillaries (Monolith NT Capillaries), and the thermophoresis process was measured using the Monolith-NT115 apparatus.
# Fmax and Fmin represent the maximal and minimal fluorescence, respectively and F the fluorescence measured in the presence of the tested compound.
# VDAC1 binding affinities of tested compounds were calculated from the MST measurements.
# [1] = Brain penetration after oral gavage, HPLC/MS of brain extracts; assay type: in vivo, C57BL/6 mice; details: for concentration at 24 h: C57BL/6, mouse, brain, oral, 50 mg/kg, mouse, read-out: Compounds in brain extract
# Protocol: C57BL/6 mice ([…]) were used. The animals received treatments with either free compounds of Formulae 1 and 10, or encapsulated compounds, prepared according to the Examples 16 and 17. Doses as indicated in the Table 4 below were administered in phosphate-buffered saline (PBS) through an oral gavage. After 12 hours and 24 hours, randomly selected mice from each group were sacrificed, their brains collected and stored in −80° C. The concentrations of the compounds in the tissues were determined by HPLC/MS analysis.
# Tissue samples were homogenized in phosphate-buffered saline solution, then diluted with acetonitrile to 50% v/v, centrifuged at 10,000 g for 10 minutes, and supernatants were analyzed. The compounds concentrations in the brain extracts were determined from calibration curves. The results were the averaged from 2 mice for each treatment group/time point.
# dopaminergic neurons = experiment: MPTP-induced Parkinson-like disease mouse model, brain immunofluorescence; assay type: in vivo, C57BL/6N male mice; details: MPTP 20 mg/kg IP 5 days; 20 mg/kg in drinking water from day 3
# Protocol: The Experimental protocols were approved by the Institutional Animal Care and Use Committee. Briefly, C57BL/6N male mice 3-months old were injected IP 3 times/week with vehicle (saline) as control. Parkinsonism was induced by repetitive intraperitoneal injection of 20 mg/kg 1-methyl-4-phenyl-1,2,3,6-tetrahydropyridine hydrochloride (MPTP), Sigma, Israel) in saline, for 5 consecutive days. Group 3 was injected with MPTP and at day 3 of MPTP treatment it was subjected to compound of Formula 3 (VBIT-12) 20 mg/kg in drinking water.
# Brains from the scarified mice were analyzed for the pathophysiological features of PD-like mouse models as induced by MPTP and the effect of VBIT-12 on the dopaminergic neurons (DN) was analyzed. Fixed brains were subjected to coronal sections (5 μm thickness) including the Substantia nigra pars compacta (SNc), ventral tegmental area (VTA) and Substantia nigra pars reticular (SNR) (see FIG. 25B) and used for immunofluorescence (IF) (FIG. 25C). Evaluation of dopaminergic neuron degeneration was monitored using anti-Tyrosine hydroxylase (TH) antibodies, which is expressed in dopaminergic neurons.
# This decrease was prevented by VBIT-12, as reflected by the increase of the number of cells stained with TH relative to the MPTP-treated group not subjected to VBIT-12.
# Sections were also subjected for staining with anti-VDAC1 antibodies (FIG. 25D). […]
# VDAC1 = VDAC1 (Homo sapiens, UniProt P21796); experiment: Selenite-induced VDAC1 oligomerization in HeLa cells, EGS cross-linking; assay type: cell-based; design: endogenous in cells; host or cells: HeLa; details: 22 h with selenite 8 μM and increasing concentrations
# VDAC1, sequence (P21796 whole entry): as the sequence (Q9Z2L0 whole entry) above, with N55T, V129M, S160A, V227I counted along it
# Protocol: Appropriate test cells (2.5-3 mg/ml) in PBS, were harvested after the treatment and incubated with the cross-linking reagent EGS at a ratio of 100-300 μM for sample of 2-3 mg protein/ml concentration (pH 8.3) for 15 minutes. Protein concentration was determined according to Lowry assay. Samples (60-80 μg protein) were subjected to SDS-PAGE by a standard technique and immunoblotting was performed using anti-VDAC1 antibodies. Gels were electro-transferred onto nitrocellulose membranes for immuno-staining. The membranes were incubated with a blocking solution containing 5% non-fat dry milk and 0.1% Tween-20 in Tris-buffered saline, followed by incubation with monoclonal anti-VDAC1, anti-Cytochrome c, anti-AIF or anti-actin antibodies. Membranes were then incubated with HRP-conjugated anti-mouse or anti-rabbit IgG (1:10,000), serving as secondary antibodies. Antibody labeling was detected by chemiluminescence. […] Quantitative analysis of immuno-reactive VDAC1 dimer, trimer and multimer bands was performed using FUSION-FX (Vilber Lourmat, France).
# Cells (2.5 mg/ml) were washed with and resuspended in PBS, pH 8.3 and incubated with membrane-permeable cross-linker EGS (250 μM) at 30° C. for 15 min and then subjected to SDS-PAGE and immunoblotting using anti-VDAC1 antibodies. […] Cell death was analyzed using propidium iodide (PI) staining and flow cytometry.
Compound,Kd (purified VDAC1),"concentration at 24 h ([1]; 50 mg/kg in PLGA nanoparticles, oral gavage)","concentration at 24 h ([1]; 50 mg/kg oral gavage, free compound)","brain penetration ([1]; given orally, in solution or encapsulated in PLGA nano-particles)",VDAC1 levels in dopaminergic neurons (anti-VDAC1 staining) (dopaminergic neurons),dopaminergic neurons in SNc (TH staining) (dopaminergic neurons),selenite-induced VDAC1 oligomerization (VDAC1)
"O=C(CC(CO)N1CCN(c2ccc(OC(F)(F)F)cc2)CC1)Nc1ccc(Cl)cc1 (racemic) [Formula 1, N-(4-chlorophenyl)-4-hydroxy-3-(4-(4-(trifluoromethoxy)phenyl)-piperazin-1-yl)butanamide]",17 ± 5.3 µM,190 ± 70 nM,120 ± 20 nM,reached the brain,,,
O=C(O)CNC(=O)C1(Nc2ccccc2)CCN(Cc2cccc3ccccc23)CC1 [Formula 3],,,,,decreased,protected against neuronal loss,Inhibited
